Among the data in ChEMBL document CHEMBL1151240, “A new dimension to the biosynthetic products isolated from the sponge Negombata magnifica” (2004) are Activity values, retold here.

Calls of active or inactive are those of the source. No cut-off for these calls is given here.

The subject of the assay is A10. Briefly: Disruption of actin cytoskeleton in rat A10 cells upto 10 ug/ml by rhodamine-phalloidin assay. In kind it is functional.

Take `C/C(=C/C(=O)O)CC/C=C\[C@@H](C)CC[C@@H]1CC=CC(=O)O1`: the outcome was inactive. The entry for `CO[C@]1([C@@H]2CSC(=O)N2)C[C@H]2C[C@@H](CC[C@H](C)/C=C\CC/C(C)=C\C(=O)O2)O1` is “inactive”; for `C/C1=C/C(=O)O[C@@H]2C[C@@H](CC[C@H](C)/C=C\CC1)O[C@@](O)([C@H]1CSC(=O)N1)C2` [16-EPI-LATRUNCULIN B] it is 5 µg/mL. Compound `C/C1=C/C(=O)O[C@@H]2C[C@@H](CC[C@H](C)/C=C\C=C\CC1)O[C@@](O)([C@@H]1CSC(=O)N1)C2` [LATRUNCULIN A] had an Activity of 0.5 µg/mL. The figure for `C/C1=C/C(=O)O[C@@H]2C[C@@H](CC[C@H](C)/C=C\CC1)O[C@@](O)([C@@H]1CSC(=O)N1)C2` [LATRUNCULIN B] is 0.5 µg/mL.
